Publication PMC12410356 (International Journal for Parasitology: Drugs and Drug …, 2025)

What was measured:
[1] = system: E. multilocularis metacestode vesicles; assay: Phosphoglucose isomerase (PGI) release assay (damage-marker release) on metacestode vesicles; format: cell-based, Echinococcus multilocularis; settings: 10 μM; for PGI d5 (relative PGI release): 5 days; for PGI d12 (relative PGI release): 12 days
Procedure: In order to quantify the drug-induced damage on whole metacestode vesicles, phosphoglucose isomerase (PGI) assay was performed as described previously ([Stadelmann et al., 2010]) with few adaptations published recently ([Kaethner et al., 2023]). In short, 8 to 12 weeks-old metacestode vesicles were purified using 2 % sucrose with subsequent washes in PBS. Metacestode vesicles were diluted in two volumes of DMEM without phenol red containing penicillin (100 U/mL) and streptomycin (100 μg/mL). […] 0.1 % DMSO was used as a negative solvent control and 0.1 % Triton X-100 was used as a positive total damage control. Metacestode vesicles were incubated under a humid, 5 % CO2 atmosphere at 37 °C. After five and twelve days, supernatant was taken and pictures were made using a Nikon SMZ18 stereo microscope (Nikon, Basel, Switzerland) at 7.5 × magnification. PGI activity in the supernatants was measured on a HIDEX Sense microplate reader (Hidex, Turku, Finland). The corresponding values of the DMSO controls were subtracted from the values of the compounds and then PGI activity was calculated relative to 0.1 % Triton X-100. […] IC50 values were calculated applying the 3 parameter Weibull type 1 in R for each of the three independent experiments ([Ritler et al., 2020]).

[2] = system: E. multilocularis metacestode vesicles; assay: Metacestode vesicle viability assay (ATP, CellTiter-Glo); format: cell-based, Echinococcus multilocularis
Procedure: Viability was assessed after 12 days using the same metacestode vesicles as for the PGI release assay. Triton X-100 was added to each well to a final concentration of 0.1 %. Subsequently the metacestode vesicles were broken mechanically and 50 μL of the supernatant was mixed with 50 μL of CellTiter-Glo® buffer (Promega, Dübendorf, Switzerland). Measurements were performed on a HIDEX Sense microplate reader.

[3] = overview screen, singlets, relative to 0.1 % Triton X-100, DMSO subtracted
[4] = overview screen, 10 μM, singlets, 12 days, relative to DMSO control
[5] = confirmation screen, triplicates, mean
[6] = confirmation screen, 10 μM, triplicates, mean, 12 days

Question: How did the “PGI d5 (relative PGI release)” value [1, 3] turn out when Cc1c(OCC(F)(F)F)ccnc1C[S+]([O-])c1nc2ccccc2[nH]1 (stereo not drawn) [MMV001438] was run?
Answer: 1.578%

Question: What about the “PGI d12 (relative PGI release)” value [1, 3] of the same molecule?
Answer: -2.884%

Question: And the “Viability d12 (relative viability)” value [2, 4]?
Answer: 96.7343%

Question: Which “PGI d5 (relative PGI release)” value [1, 3] does the source give for CCOC(=O)N1CCN(c2ccc(Cl)cc2)CC1 [MMV1578898] here?
Answer: -0.03171%

Question: And the “PGI d12 (relative PGI release)” value [1, 3]?
Answer: 1.172%

Question: What about the “Viability d12 (relative viability)” value [2, 4] of the same molecule?
Answer: 47.7603%

Question: With COc1ccc(C(C)(C)C)cc1NC(=O)C(=O)c1ccc(OCCN2CCOCC2)c2ccccc12 [MMV1782209] as the molecule, how does the “PGI d5 (relative PGI release)” value [1, 3] read?
Answer: 0.2921%

Question: What about the “PGI d12 (relative PGI release)” value [1, 3] of the same molecule?
Answer: 0.2691%

Question: And the “Viability d12 (relative viability)” value [2, 4]?
Answer: 152.31%

Question: Which results are given for Cc1nc2ccc(Oc3ccccc3)cc2c2c1CCN2CCc1ccccc1 [MMV1634399]?
Answer: PGI d5 (relative PGI release) [1, 5]: 0.85%; PGI d12 (relative PGI release) [1, 5]: 15.15%; PGI d5 (relative PGI release) [1, 3]: 25.5463%; PGI d12 (relative PGI release) [1, 3]: 44.1623%; Viability d12 (relative viability) [2, 6]: 116.13%; Viability d12 (relative viability) [2, 4]: 23.583%

Question: What does the source list for N=c1n(CCN2CCCCC2)c2ccccc2n1CC(O)COc1ccc(Cl)cc1Cl (stereo not drawn) [MMV394033]?
Answer: PGI d5 (relative PGI release) [1, 5]: 0.57%; PGI d12 (relative PGI release) [1, 5]: 0.65%; PGI d5 (relative PGI release) [1, 3]: 6.943%; PGI d12 (relative PGI release) [1, 3]: 70.607%; Viability d12 (relative viability) [2, 6]: 90.34%; Viability d12 (relative viability) [2, 4]: 9.628%

Question: Which results are given for C[N+]1(C)CCCC(OC(=O)C(O)(c2ccccc2)c2ccccc2)C1 (stereo not drawn) [MMV002676]?
Answer: PGI d5 (relative PGI release) [1, 3]: -4.414%; PGI d12 (relative PGI release) [1, 3]: -4.73%; Viability d12 (relative viability) [2, 4]: 80.9524%

Question: Which results are given for Oc1c(C(Nc2ccccn2)c2ccccc2)ccc2cccnc12 (stereo not drawn) [MMV565773]?
Answer: PGI d5 (relative PGI release) [1, 3]: -0.6323%; PGI d12 (relative PGI release) [1, 3]: -6.242%; Viability d12 (relative viability) [2, 4]: 113.31%

Question: What does the source list for Cc1[nH]c2ccccc2c1CCNCc1ccc(/C=C/C(=O)NO)cc1 [MMV010036]?
Answer: PGI d5 (relative PGI release) [1, 3]: 1.148%; PGI d12 (relative PGI release) [1, 3]: -1.326%; Viability d12 (relative viability) [2, 4]: 57.5391%

Question: How did the “PGI d5 (relative PGI release)” value [1, 3] turn out when O=c1cc(NCCCN[C@@H]2CCOc3c(Br)cc(Br)cc32)[nH]c2ccsc12 [MMV1578884] was run?
Answer: 13.7393%

Question: And the “PGI d12 (relative PGI release)” value [1, 3]?
Answer: 54.0946%

Question: And the “Viability d12 (relative viability)” value [2, 4]?
Answer: 55.812%

Question: How did the “PGI d5 (relative PGI release)” value [1, 5] turn out when Oc1cccc(C(Nc2nccs2)c2ccc3cccnc3c2O)c1 (stereo not drawn) [MMV642550] was run?
Answer: 0.17%

Question: And the “PGI d12 (relative PGI release)” value [1, 5]?
Answer: 0.81%

Question: What about the “PGI d5 (relative PGI release)” value [1, 3] of the same molecule?
Answer: 8.475%

Question: What about the “PGI d12 (relative PGI release)” value [1, 3] of the same molecule?
Answer: 88.2133%

Question: What about the “Viability d12 (relative viability)” value [2, 6] of the same molecule?
Answer: 142.26%

Question: What about the “Viability d12 (relative viability)” value [2, 4] of the same molecule?
Answer: 17.7096%

Question: Which results are given for CCOC(=O)/C=C/[C@H](C[C@@H]1CCNC1=O)NC(=O)[C@H](CC)n1cccc(NC(=O)c2cc(C)on2)c1=O [MMV1782112]?
Answer: PGI d5 (relative PGI release) [1, 3]: 0.1675%; PGI d12 (relative PGI release) [1, 3]: -19.6518%; Viability d12 (relative viability) [2, 4]: 109.382%

Question: Which results are given for COc1cc2c(O)c3c(c(-c4ccc5c(c4)OCO5)c2cc1OC)C(=O)OC3 [MMV102270]?
Answer: PGI d5 (relative PGI release) [1, 3]: -1.791%; PGI d12 (relative PGI release) [1, 3]: 18.1463%; Viability d12 (relative viability) [2, 4]: 116.78%

Question: How did the “PGI d5 (relative PGI release)” value [1, 3] turn out when NC(=O)c1nccn([C@@H]2O[C@H](CO)[C@@H](O)[C@H]2O)c1=O [MMV1782104] was run?
Answer: 1.472%

Question: And the “PGI d12 (relative PGI release)” value [1, 3]?
Answer: -19.2173%

Question: What about the “Viability d12 (relative viability)” value [2, 4] of the same molecule?
Answer: 106.79%

Question: Which “PGI d5 (relative PGI release)” value [1, 3] does the source give for O=C(Nc1ncc(Cc2cccc3ccccc23)s1)C1CCCCC1 [MMV1593532] here?
Answer: -1.117%

Question: And the “PGI d12 (relative PGI release)” value [1, 3]?
Answer: -3.615%

Question: And the “Viability d12 (relative viability)” value [2, 4]?
Answer: 94.209%

Question: For CCCCc1ccc(S(=O)(=O)Nc2cc(C)on2)cc1 [MMV1782108], which “PGI d5 (relative PGI release)” value [1, 3] is on record?
Answer: -2.561%

Question: And the “PGI d12 (relative PGI release)” value [1, 3]?
Answer: -24.5808%

Question: What about the “Viability d12 (relative viability)” value [2, 4] of the same molecule?
Answer: 50.3487%

Question: What does the source list for O=C(NC1CCCc2c1[nH]c1ccc(Cl)cc21)c1ccccn1 (stereo not drawn) [MMV690621]?
Answer: PGI d5 (relative PGI release) [1, 3]: 0.1463%; PGI d12 (relative PGI release) [1, 3]: -17.1395%; Viability d12 (relative viability) ([2]; 10 µM): 144.507%

Question: Which “PGI d5 (relative PGI release)” value [1, 3] does the source give for C[C@@H](c1nc(-c2ccc(C#N)cc2)cs1)[C@](O)(Cn1cncn1)c1ccc(F)cc1F [MMV1634362] here?
Answer: -1.682%

Question: What about the “PGI d12 (relative PGI release)” value [1, 3] of the same molecule?
Answer: -23.6483%

Question: And the “Viability d12 (relative viability)” value ([2]; 10 µM)?
Answer: 103.703%

Question: How did the “PGI d5 (relative PGI release)” value [1, 3] turn out when COc1ccc(-n2cnc3cc(NCc4ccco4)ccc32)cc1 [MMV617332] was run?
Answer: 0.2921%

Question: What about the “PGI d12 (relative PGI release)” value [1, 3] of the same molecule?
Answer: -0.1496%

Question: What about the “Viability d12 (relative viability)” value [2, 4] of the same molecule?
Answer: 117.278%

Question: Which results are given for COCCn1cnc2c(O)nc(Nc3ccccc3)nc21 [MMV1782103]?
Answer: PGI d5 (relative PGI release) [1, 3]: -0.2041%; PGI d12 (relative PGI release) [1, 3]: -2.0996%; Viability d12 (relative viability) [2, 4]: 66.6969%

Question: N#CCN1C(=O)COc2cc(F)c(N3C(=O)c4ccccc4C3=O)cc21 [MMV1579785] was tested. Which “PGI d5 (relative PGI release)” value [1, 3] did it give?
Answer: -1.9012%

Question: And the “PGI d12 (relative PGI release)” value [1, 3]?
Answer: -13.7258%

Question: What about the “Viability d12 (relative viability)” value [2, 4] of the same molecule?
Answer: 95.5206%
